# According to ChEMBL document CHEMBL4043122, “Discovery of spiro[indole-3,2'-pyrrolidin]-2(1H)-one based inhibitors targeting Brr2, a core component of the U5 snRNP” (Bioorg Med Chem, 2017):
# The source made the active and inactive calls. No cut-off for these calls is given here.
# Columns and labels:
# [1] = molecular target: T1, U5 small nuclear ribonucleoprotein 200 kDa helicase (Homo sapiens, UniProt O75643); assay: Inhibition of full length recombinant human N-terminal His-tagged BRR2 RNA dependent ATPase activity expressed in baculovirus infected Sf9 cells using single stranded poly(U) RNA as substrate after 30 mins by ADP-Glo luminescence assay
# T1 sequence (O75643 whole entry): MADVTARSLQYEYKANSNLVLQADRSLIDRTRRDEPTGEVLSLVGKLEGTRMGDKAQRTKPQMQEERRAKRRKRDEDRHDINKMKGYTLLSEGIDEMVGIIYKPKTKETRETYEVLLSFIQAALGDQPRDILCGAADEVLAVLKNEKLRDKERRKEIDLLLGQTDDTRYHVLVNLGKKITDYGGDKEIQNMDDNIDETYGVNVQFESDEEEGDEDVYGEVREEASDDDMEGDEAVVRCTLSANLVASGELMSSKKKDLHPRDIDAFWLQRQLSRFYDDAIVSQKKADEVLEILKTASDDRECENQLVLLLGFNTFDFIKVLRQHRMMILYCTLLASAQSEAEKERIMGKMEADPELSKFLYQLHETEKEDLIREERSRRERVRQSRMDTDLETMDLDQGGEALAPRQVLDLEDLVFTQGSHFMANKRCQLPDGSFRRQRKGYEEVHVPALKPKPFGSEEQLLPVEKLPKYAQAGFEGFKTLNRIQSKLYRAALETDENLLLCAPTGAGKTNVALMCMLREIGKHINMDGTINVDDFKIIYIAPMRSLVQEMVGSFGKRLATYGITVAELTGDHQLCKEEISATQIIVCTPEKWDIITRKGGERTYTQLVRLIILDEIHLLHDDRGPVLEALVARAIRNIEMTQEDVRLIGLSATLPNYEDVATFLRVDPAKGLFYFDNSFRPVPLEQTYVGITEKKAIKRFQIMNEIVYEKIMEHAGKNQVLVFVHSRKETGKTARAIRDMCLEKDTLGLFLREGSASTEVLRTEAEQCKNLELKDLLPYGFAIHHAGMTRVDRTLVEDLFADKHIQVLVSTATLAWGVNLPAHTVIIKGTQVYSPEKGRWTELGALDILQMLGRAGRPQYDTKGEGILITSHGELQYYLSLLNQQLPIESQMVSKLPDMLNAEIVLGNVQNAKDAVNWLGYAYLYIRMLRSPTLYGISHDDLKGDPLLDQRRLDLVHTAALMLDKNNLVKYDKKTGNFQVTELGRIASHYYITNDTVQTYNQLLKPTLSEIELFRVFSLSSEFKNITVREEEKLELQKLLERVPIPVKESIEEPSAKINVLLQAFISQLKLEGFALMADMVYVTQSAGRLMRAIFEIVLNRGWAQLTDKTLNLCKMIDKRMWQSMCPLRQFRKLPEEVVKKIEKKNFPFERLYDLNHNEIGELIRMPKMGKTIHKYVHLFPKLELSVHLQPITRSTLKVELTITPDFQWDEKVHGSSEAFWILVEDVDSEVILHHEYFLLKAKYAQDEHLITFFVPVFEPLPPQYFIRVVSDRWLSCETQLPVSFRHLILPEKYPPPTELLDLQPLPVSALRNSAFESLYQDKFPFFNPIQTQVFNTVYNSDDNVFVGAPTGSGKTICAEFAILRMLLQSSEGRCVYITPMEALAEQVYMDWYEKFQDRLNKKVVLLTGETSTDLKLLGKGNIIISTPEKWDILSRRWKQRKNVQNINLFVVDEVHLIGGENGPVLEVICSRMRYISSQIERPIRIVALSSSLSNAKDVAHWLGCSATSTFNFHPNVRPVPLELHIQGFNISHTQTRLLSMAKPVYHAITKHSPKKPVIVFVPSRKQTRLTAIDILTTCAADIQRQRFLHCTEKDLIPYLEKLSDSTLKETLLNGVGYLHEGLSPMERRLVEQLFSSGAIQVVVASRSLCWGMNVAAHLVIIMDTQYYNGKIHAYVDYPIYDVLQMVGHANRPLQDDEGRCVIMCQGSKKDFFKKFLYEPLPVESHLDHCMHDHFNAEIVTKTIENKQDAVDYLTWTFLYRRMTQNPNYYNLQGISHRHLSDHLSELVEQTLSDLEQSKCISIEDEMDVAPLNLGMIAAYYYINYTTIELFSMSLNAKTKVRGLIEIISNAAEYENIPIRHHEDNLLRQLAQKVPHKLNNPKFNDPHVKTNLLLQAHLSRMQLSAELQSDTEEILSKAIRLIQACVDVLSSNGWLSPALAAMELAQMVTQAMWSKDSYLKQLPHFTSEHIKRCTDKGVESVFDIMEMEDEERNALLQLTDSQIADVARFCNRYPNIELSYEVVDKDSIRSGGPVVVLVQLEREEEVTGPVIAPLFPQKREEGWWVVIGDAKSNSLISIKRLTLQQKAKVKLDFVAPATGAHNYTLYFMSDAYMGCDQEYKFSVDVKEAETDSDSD
# [2] = molecular target: T1, U5 small nuclear ribonucleoprotein 200 kDa helicase; assay: Inhibition of full length recombinant human N-terminal His-tagged BRR2 helicase activity expressed in baculovirus infected Sf9 cells using 5'-[FITC]-UUCCCCUGCAUAAC-3'/5'-GUUAUGCAGGGGAACCAACGCAUAUCAGUGAGGAUU-3' RNA as substrate at 100 uM after 10 mins in presence of ATP by PAGE analysis
# [3] = Permeability of the compound at pH 7.4 by PAMPA; assay type: physicochemical; conditions: read-out: permeability
# [4] = molecular target: Eukaryotic initiation factor 4A-III (Homo sapiens, UniProt P38919); assay: Inhibition of MLN51-induced full length recombinant human N-terminal His6/SUMO-tagged eIF4A3 RNA dependent ATPase activity expressed in Escherichia coli BL21(DE3) using single stranded poly(U) RNA as substrate after 30 mins by ADP-Glo luminescence assay
# Sequence of Eukaryotic initiation factor 4A-III (P38919 whole entry): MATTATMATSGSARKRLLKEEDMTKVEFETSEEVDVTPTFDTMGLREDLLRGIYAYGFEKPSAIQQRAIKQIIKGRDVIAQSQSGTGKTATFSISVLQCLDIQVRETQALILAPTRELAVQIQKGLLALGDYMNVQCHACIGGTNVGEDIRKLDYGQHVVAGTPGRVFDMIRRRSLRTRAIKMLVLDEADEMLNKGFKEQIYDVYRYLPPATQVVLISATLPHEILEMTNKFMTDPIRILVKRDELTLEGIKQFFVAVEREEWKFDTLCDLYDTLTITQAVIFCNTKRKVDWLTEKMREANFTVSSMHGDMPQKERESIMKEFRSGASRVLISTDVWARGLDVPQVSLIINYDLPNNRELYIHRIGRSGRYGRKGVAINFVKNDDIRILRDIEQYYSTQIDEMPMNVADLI
# [5] = Solubility of the compound at pH 6.8; assay type: physicochemical; conditions: buffer
# [6] = molecular target: Eukaryotic initiation factor 4A-I (Homo sapiens, UniProt P60842); assay: Inhibition of elF4G-induced full length recombinant human N-terminal His6-SUMO-tagged eIF4A1 RNA dependent ATPase activity expressed in Escherichia coli BL21(DE3) using single stranded poly(U) RNA as substrate after 30 mins by ADP-Glo luminescence assay
# Sequence of Eukaryotic initiation factor 4A-I (P60842 whole entry): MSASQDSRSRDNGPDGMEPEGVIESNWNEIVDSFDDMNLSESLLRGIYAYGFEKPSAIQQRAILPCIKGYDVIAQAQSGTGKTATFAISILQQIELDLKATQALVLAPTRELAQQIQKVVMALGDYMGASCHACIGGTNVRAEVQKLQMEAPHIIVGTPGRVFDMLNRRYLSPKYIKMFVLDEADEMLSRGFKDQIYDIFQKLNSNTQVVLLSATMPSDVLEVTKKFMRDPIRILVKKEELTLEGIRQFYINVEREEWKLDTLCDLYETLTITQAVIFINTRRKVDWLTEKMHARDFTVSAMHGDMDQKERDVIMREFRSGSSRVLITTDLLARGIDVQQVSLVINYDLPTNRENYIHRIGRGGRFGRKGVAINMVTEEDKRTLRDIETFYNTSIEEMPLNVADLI
# [7] = molecular target: T2, ATP-dependent RNA helicase DHX29 (Homo sapiens, UniProt Q7Z478); assay: Inhibition of full length recombinant human N-terminal His-FLAG-tagged DHX29 RNA dependent ATPase activity expressed in baculovirus infected Sf9 insect cells using single stranded poly(U) RNA as substrate after 30 mins by ADP-Glo luminescence assay
# T2 sequence (Q7Z478 whole entry): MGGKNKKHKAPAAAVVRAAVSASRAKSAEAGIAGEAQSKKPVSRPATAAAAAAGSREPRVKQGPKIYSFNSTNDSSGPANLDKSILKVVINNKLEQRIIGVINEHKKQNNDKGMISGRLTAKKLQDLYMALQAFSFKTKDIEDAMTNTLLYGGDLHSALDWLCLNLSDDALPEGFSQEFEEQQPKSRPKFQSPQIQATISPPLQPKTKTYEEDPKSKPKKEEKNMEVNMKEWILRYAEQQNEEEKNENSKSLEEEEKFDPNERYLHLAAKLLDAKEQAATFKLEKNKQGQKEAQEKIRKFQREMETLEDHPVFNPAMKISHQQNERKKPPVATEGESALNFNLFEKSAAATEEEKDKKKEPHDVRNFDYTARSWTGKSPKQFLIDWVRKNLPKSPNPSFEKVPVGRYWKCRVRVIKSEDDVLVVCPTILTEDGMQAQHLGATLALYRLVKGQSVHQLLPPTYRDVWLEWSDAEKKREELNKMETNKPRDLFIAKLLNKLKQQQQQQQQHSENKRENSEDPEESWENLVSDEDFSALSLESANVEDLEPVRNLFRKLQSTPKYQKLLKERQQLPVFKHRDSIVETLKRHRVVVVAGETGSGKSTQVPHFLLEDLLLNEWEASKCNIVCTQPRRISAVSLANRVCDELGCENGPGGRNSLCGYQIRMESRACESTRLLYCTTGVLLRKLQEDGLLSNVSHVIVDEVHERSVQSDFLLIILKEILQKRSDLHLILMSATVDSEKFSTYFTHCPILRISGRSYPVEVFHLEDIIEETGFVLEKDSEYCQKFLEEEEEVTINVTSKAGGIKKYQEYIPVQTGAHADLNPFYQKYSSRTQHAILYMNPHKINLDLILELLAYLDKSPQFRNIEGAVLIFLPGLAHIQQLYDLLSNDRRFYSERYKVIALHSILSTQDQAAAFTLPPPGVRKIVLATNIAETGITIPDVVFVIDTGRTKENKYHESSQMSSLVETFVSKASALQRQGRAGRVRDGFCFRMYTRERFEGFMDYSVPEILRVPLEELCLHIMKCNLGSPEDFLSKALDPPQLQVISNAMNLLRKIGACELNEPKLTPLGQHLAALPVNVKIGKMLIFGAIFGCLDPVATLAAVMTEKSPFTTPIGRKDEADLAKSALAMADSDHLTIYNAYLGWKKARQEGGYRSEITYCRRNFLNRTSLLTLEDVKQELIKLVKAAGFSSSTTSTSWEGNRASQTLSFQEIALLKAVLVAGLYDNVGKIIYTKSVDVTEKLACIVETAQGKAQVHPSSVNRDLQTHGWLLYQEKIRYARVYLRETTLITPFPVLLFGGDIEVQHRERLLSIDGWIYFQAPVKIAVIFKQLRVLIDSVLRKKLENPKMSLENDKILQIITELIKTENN
# [8] = molecular target: T1, U5 small nuclear ribonucleoprotein 200 kDa helicase; assay: Inhibition of full length recombinant human N-terminal His-tagged BRR2 helicase activity expressed in baculovirus infected Sf9 cells using 5'-[FITC]-UUCCCCUGCAUAAC-3'/5'-GUUAUGCAGGGGAACCAACGCAUAUCAGUGAGGAUU-3' RNA as substrate after 10 mins in presence of ATP by PAGE analysis
SMILES,IC50 [1],inhibition [2],Papp [3],IC50 [4],solubility [5],IC50 [6],IC50 [7],IC50 [8]
CC(C)C[C@H]1C[C@@H](C)[C@]2(C(=O)Nc3ccc(F)cc32)N1C(=O)c1cn(Cc2ccccc2)cn1 (racemic),0.024 µM,–,–,–,–,–,–,–
CC(C)C[C@@H]1C[C@H](C)[C@@]2(C(=O)Nc3ccc(F)cc32)N1C(=O)c1cn(Cc2ccccc2)cn1,> 100 µM,inactive,19.5 ×10⁻⁶ cm/s,> 100 µM,46 µg/mL,> 100 µM,–,–
CC(C)C[C@H]1C[C@@H](C)[C@]2(C(=O)Nc3ccc(F)cc32)N1C(=O)c1cn(Cc2ccccc2)cn1,0.011 µM,–,18.2 ×10⁻⁶ cm/s,> 100 µM,45 µg/mL,> 100 µM,> 100 µM,0.35 µM

# Results, then the molecule that gave them:
IC50 [1],inhibition [2],Papp [3],IC50 [4],solubility [5],IC50 [6],IC50 [7],IC50 [8],SMILES
0.042 µM,–,–,–,–,–,–,–,CC(C)C[C@H]1C[C@@H](C)[C@]2(C(=O)Nc3ccc(F)cc32)N1C(=O)c1cn(C)cn1 (racemic)
84 µM,inactive,16.8 ×10⁻⁶ cm/s,> 100 µM,> 110 µg/mL,> 100 µM,–,–,CC(C)C[C@@H]1C[C@H](C)[C@@]2(C(=O)Nc3ccc(F)cc32)N1C(=O)c1cn(C)cn1
0.021 µM,–,18.3 ×10⁻⁶ cm/s,> 100 µM,> 99 µg/mL,> 100 µM,> 100 µM,0.48 µM,CC(C)C[C@H]1C[C@@H](C)[C@]2(C(=O)Nc3ccc(F)cc32)N1C(=O)c1cn(C)cn1
